Here are results for 30 molecules from patent US8551988B2, “Benzimidazole derivatives: preparation and pharmaceutical applications” (Mei Pharma, Inc., priority 2003, dated 2013).

Assay [1] addresses HDAC8 enzyme (recombinant GST-HDAC8) (Homo sapiens (Human), UniProt Q9BY41). The assay can be described thus: In vitro HDAC assay (BIOMOL fluorescent-based HDAC activity assay), HDAC8. The format is biochemical.
Procedure: (§1) The assay has been carried out in 96 well format and the BIOMOL fluorescent-based HDAC activity assay has been applied. […] Flur de lys Developer was added and the reaction was incubated for 10 min. Briefly, deacetylation of the substrate sensitizes it to the developer, which then generates a fluorophore (symbol). The fluorophore is excited with 360 nm light and the emitted light (460 nm) is detected on a fluorometric plate reader (Tecan Ultra Microplate detection system, Tecan Group Ltd.).
(§2) The analytical software, Prism 3.0 has been used to generate IC50 from a series of data.
The target in assay [2] is HDAC1 enzyme (recombinant GST-HDAC1) (Homo sapiens (Human), UniProt Q13547). The assay can be described thus: In vitro HDAC assay (BIOMOL fluorescent-based HDAC activity assay), HDAC1. Type of assay: biochemical.
Chain of HDAC1 enzyme (recombinant GST-HDAC1) (Q13547 whole entry): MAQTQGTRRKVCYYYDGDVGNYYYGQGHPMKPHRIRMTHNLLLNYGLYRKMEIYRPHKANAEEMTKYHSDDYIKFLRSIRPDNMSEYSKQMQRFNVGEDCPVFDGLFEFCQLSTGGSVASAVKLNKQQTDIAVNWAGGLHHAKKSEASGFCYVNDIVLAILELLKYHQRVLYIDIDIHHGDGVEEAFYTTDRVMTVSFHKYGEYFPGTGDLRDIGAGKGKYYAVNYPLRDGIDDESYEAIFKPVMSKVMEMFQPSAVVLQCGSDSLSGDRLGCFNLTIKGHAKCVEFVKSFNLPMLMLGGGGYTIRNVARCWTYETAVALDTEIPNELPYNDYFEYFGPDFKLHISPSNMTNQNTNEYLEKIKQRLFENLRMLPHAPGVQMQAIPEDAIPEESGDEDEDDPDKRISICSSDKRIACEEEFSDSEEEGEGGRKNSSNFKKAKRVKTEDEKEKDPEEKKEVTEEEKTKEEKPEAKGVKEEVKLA
Procedure: as §1, §2
Where [3] appears, read: read-out: HDAC8 Enzyme Activity IC50.
Setting [4] is: read-out: HDAC1 Enzyme Activity IC50.
The mark [5] stands for this setting: Free base, read-out: IC50 (HDAC8).
Where [6] appears, read: Free base, read-out: IC50 (HDAC1).

Like-named read-outs stand apart in the source and are kept apart here.

Chain of HDAC8 enzyme (recombinant GST-HDAC8) (Q9BY41 whole entry): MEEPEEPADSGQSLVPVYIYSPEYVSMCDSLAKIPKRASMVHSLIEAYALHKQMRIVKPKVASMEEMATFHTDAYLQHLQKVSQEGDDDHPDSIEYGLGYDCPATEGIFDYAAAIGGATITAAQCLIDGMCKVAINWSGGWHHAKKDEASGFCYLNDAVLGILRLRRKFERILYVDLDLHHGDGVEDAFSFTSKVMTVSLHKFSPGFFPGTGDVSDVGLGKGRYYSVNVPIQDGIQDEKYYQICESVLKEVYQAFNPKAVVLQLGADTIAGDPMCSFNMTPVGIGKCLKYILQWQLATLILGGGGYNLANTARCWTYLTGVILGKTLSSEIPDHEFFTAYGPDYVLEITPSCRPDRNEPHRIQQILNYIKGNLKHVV

For `CC(C)Cc1nc2cc(/C=C/C(=O)NO)ccc2n1CCc1ccccc1` [Compound 25, N-Hydroxy-3-(2-isobutyl-1-phenethyl-1H-benzimidazol-5-yl]-acrylamide], the values for the IC50 in assay [1] (setting [3]) and in assay [2] (setting [4]) were 601 nM and 1320 nM, respectively.

Take `COc1cc(-c2nc3cc(/C=C/C(=O)NO)ccc3n2CC(O)CO)ccc1OCc1ccccc1` (stereo not shown) [Compound 7, N-Hydroxy-3-[2-(4-benzyloxy-3-methoxy-phenyl)-1-(2,3-hydroxy-propyl)-1H-benzimidazole-5-yl]-acrylamide]: the IC50 came out at 336 nM in assay [1] (setting [3]) and 1520 nM in assay [2] (setting [4]). For the molecule `CCN(CC)CCn1c(CCc2ccccc2)nc2cc(/C=C/C(=O)NO)ccc21` [Compound 66, N-Hydroxy-3-[1-(2-diethylamino-ethyl)-2-phenethyl-1H-benzimidazol-5-yl]-acrylamide], the half-maximal inhibitory concentration (IC50) in assay [1] (setting [3]) stood at 255 nM; in assay [2] (setting [4]), 72 nM. On to `CC(Cc1nc2cc(/C=C/C(=O)NO)ccc2n1CCc1cccnc1)c1ccccc1` (stereo not shown) [Compound 41], for which the IC50 in assay [1] (setting [3]) stood at 159 nM. As for `O=C(/C=C/c1ccc2c(c1)nc(CCc1ccccc1)n2CCCO)NO` [Compound 14, N-Hydroxy-3-[1-(3-hydroxy-propyl)-2-phenethyl-1H-benzimidazol-5-yl]-acrylamide], the IC50 amounted to 251 nM in assay [1] (setting [3]) and 171 nM in assay [2] (setting [4]). As to `COc1ccc(-c2nc3cc(/C=C/C(=O)NO)ccc3n2CCO)cc1` [Compound 5, N-Hydroxy-3-[1-(2-hydroxy-ethyl)-2-(4-methoxy-phenyl)-1H-benzimidazole-5-yl]-acrylamide], the half-maximal inhibitory concentration (IC50) in assay [1] (setting [3]) amounted to 401 nM; in assay [2] (setting [4]), 4320 nM. Consider `COc1cc(Cn2c(CCc3ccccc3)nc3cc(/C=C/C(=O)NO)ccc32)cc(OC)c1OC` [Compound 2, N-Hydroxy-3-[1-(3,4,5-trimethoxybenzyl)-2-(2-phenyl-ethyl)-1H-benzimidazol-5-yl]-acrylamide], for which the IC50 is 267 nM in assay [1] (setting [5]); 355 nM in assay [1] (setting [3]); 43 nM in assay [2] (setting [6]); 49 nM in assay [2] (Salt of CF3COOH, read-out: IC50 (HDAC1)); 26 nM in assay [2] (setting [4]).

As to `CC(C)Cc1nc2cc(/C=C/C(=O)NO)ccc2n1CCc1ccccn1` [Compound 22], the IC50 in assay [1] (setting [3]) turned out to be 234 nM. Regarding `O=C(/C=C/c1ccc2c(c1)nc(CCc1ccccc1)n2CCc1ccccn1)NO` [Compound 18], in assay [1] (setting [3]), the IC50 is 290 nM. Regarding `CC(C)Cc1nc2cc(/C=C/C(=O)NO)ccc2n1CCCO` [Compound 21, N-Hydroxy-3-[1-(3-hydroxy-propyl)-2-isobutyl-1H-benzimidazol-5-yl]-acrylamide], the IC50 in assay [1] (setting [3]) worked out at 238 nM; in assay [2] (setting [4]), 64 nM. With `O=C(/C=C/c1ccc2c(c1)nc(-c1ccncc1)n2CCCO)NO` [Compound 11, N-Hydroxy-3-[1-(3-hydroxy-propyl)-2-(4-pyridyl)-1H-benzimidazol-5-yl]-acrylamide], the results for the IC50 in assay [1] (setting [3]) and in assay [2] (setting [4]) were 161 nM and 846 nM, respectively.

For `O=C(/C=C/c1ccc2c(c1)nc(CCc1ccccc1)n2CCCN1CCOCC1)NO` [Compound 31, N-Hydroxy-3-[1-(3-morpholin-4-propyl]-2-phenethyl-1H-benzimidazol-5-yl}-acrylamide], the IC50 in assay [1] (setting [3]) is 1090 nM; in assay [2] (setting [4]), 246 nM.

Take `O=C(/C=C/c1ccc2c(c1)nc(CCc1ccccc1)n2CCN1CCCCC1)NO` [Compound 67, N-Hydroxy-3-[2-phenethyl-1-(piperidin-1-yl-ethyl)-1H-benzimidazol-5-yl]-acrylamide]: the IC50 stood at 254 nM in assay [1] (setting [5]) and 37 nM in assay [2] (setting [6]).

In the case of `CC(Cc1nc2cc(/C=C/C(=O)NO)ccc2n1CCCO)c1ccccc1` (stereo not shown) [Compound 1, N-Hydroxy-3-[1-(3-hydroxy-propyl)-2-(2-phenyl-propyl)-1H-benzimidazol-5-yl]-acrylamide], the IC50 in assay [1] (setting [3]) stood at 119 nM; in assay [2] (setting [4]), 51 nM. `COc1cc(-c2nc3cc(/C=C/C(=O)NO)ccc3n2CCCO)ccc1OCc1ccccc1` [Compound 4, N-Hydroxy-3-[2-(4-benzyloxy-3-methoxy-phenyl)-1-(3-hydroxy-propyl)-1H-benzimidazole-5-yl]-acrylamide]: the IC50 in assay [1] (setting [3]) came out at 790 nM; in assay [2] (setting [4]), 1340 nM. With `O=C(/C=C/c1ccc2c(c1)nc(-c1ccsc1)n2CCCO)NO` [Compound 20, N-Hydroxy-3-[1-(3-hydroxy-propyl)-2-thiophen-3-yl-1H-benzimidazol-5-yl]-acrylamide], the values for the IC50 in assay [1] (setting [3]) and in assay [2] (setting [4]) were 537 nM and 1910 nM, respectively. Regarding `CCn1c(C)nc2cc(/C=C/C(=O)NO)ccc21` [Compound 43, N-Hydroxy-3-(1-Ethyl-2-methyl-1H-benzimidazol-5-yl]-acrylamide], the IC50 in assay [1] (setting [3]) came out at 192 nM; in assay [2] (setting [4]), 947 nM. For the molecule `CCCCCCCCc1nc2cc(/C=C/C(=O)NO)ccc2n1CCCO` [Compound 23, N-Hydroxy-3-[1-(3-hydroxy-propyl)-2-octyl-1H-benzimidazol-5-yl]-acrylamide], the concentration for half-maximal inhibition (IC50) in assay [1] (setting [3]) amounted to 402 nM; in assay [2] (setting [4]) it was 529 nM. In the same order, the values of `O=C(/C=C/c1ccc2c(c1)ncn2CCc1ccccn1)NO` [Compound 42, N-Hydroxy-3-[1-(2-pyridin-2-yl-ethyl)-1H-benzimidazol-5-yl]-acrylamide] are 237 nM and 479 nM. As to `COCCCn1c(CCc2ccccc2)nc2cc(/C=C/C(=O)NO)ccc21` [Compound 15], in assay [1] (setting [3]), the 50% inhibitory concentration (IC50) came out at 313 nM. As for `O=C(/C=C/c1ccc2c(c1)nc(-c1ccccn1)n2CCCO)NO` [Compound 13, N-Hydroxy-3-[1-(3-hydroxy-propyl)-2-(2-pyridyl)-1H-benzimidazol-5-yl]-acrylamide], in assay [1] (setting [3]), the IC50 was determined as 141 nM. In the case of `O=C(/C=C/c1ccc2c(c1)nc(COCc1ccccc1)n2CCc1cccnc1)NO` [Compound 28], the half-maximal inhibitory concentration (IC50) in assay [1] (setting [3]) was 300 nM. On to `O=C(NO)c1ccc2c(c1)nc(CCc1ccccc1)n2CCCO` [Compound 40, 1-(3-Hydroxy-propyl)-2-phenethyl-1H-benzimidazol-5-carboxylic acid hydroxyamide], for which, in assay [1] (setting [3]), the IC50 worked out at 441 nM. As to `CCCn1cnc2cc(/C=C/C(=O)NO)ccc21` [Compound 37, N-Hydroxy-3-(1-propyl-1H-benzimidazol-5-yl}-acrylamide], the IC50 in assay [2] (setting [4]) is 897 nM. For the molecule `O=C(/C=C/c1ccc2c(c1)nc(CCc1ccccc1)n2CC(O)CO)NO` (stereo not shown) [Compound 8], the IC50 in assay [1] (setting [3]) was 454 nM. For the molecule `CN(C)CC(C)(C)Cn1c(SCc2ccccc2)nc2cc(/C=C/C(=O)NO)ccc21` [Compound 89, N-Hydroxy-3-[2-benzylsulfanyl-1-(3-dimethylamino-2-2,dimethyl-propyl)-1H-benzimidazol-5-yl]-acrylamide], the IC50 in assay [2] (setting [4]) turned out to be 116 nM. Still for that read-out and setting: then `CCn1cnc2cc(/C=C/C(=O)NO)ccc21` [Compound 39, N-Hydroxy-3-(1-Ethyl-1H-benzimidazol-5-yl)-acrylamide], with 1220 nM; and `CCCn1c(CCc2ccccc2)nc2cc(/C=C/C(=O)NO)ccc21` [Compound 36, N-Hydroxy-3-(2-phenethyl-1-propyl-1H-benzimidazol-5-yl}-acrylamide], with 227 nM; and `O=C(/C=C/c1ccc2[nH]cnc2c1)NO` [Compound 51, N-Hydroxy-3-(1H-benzimidazol-5-yl)-acrylamide], with 896 nM.

Consider `CC(C)Cc1nc2cc(CCC(=O)NO)ccc2n1CCCO` [Compound 29, N-Hydroxy-3-[1-(3-Hydroxy-propyl)-2-isobutyl-1H-benzimidazol-5-yl]-propionamide], for which the concentration for half-maximal inhibition (IC50) in assay [1] (setting [3]) was 34000 nM.
